PubChem BioAssay (NCI)
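Grown in 96-well plates, cells were treated for 48 hours with each compound at five concentrations. Insufficient inhibition: endpoint recorded as highest concentration tested. The concentration for 50% growth inhibition is given as GI50. TGI denotes the concentration required for complete inhibition of growth.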

What was measured:
Test in all cases: inhibition of tumour cell growth, NCI panel, 48 h
[1] = tested on: PC-3 prostate
[2] = tested on: SK-MEL-28 melanoma
[3] = tested on: RPMI-8226 leukemia
[4] = tested on: UACC-62 melanoma
[5] = tested on: OVCAR-5 ovarian
[6] = tested on: MALME-3M melanoma
[7] = tested on: MCF7 breast
[8] = tested on: HCT-15 colon
[9] = tested on: HS 578T breast
[10] = tested on: OVCAR-4 ovarian
[11] = tested on: MOLT-4 leukemia
[12] = tested on: SNB-75 CNS
[13] = tested on: SF-295 CNS
[14] = tested on: K-562 leukemia
[15] = tested on: HL-60(TB) leukemia
[16] = tested on: EKVX NSCLC
[17] = tested on: A498 renal
[18] = tested on: U251 CNS
[19] = tested on: HCC-2998 colon
[20] = tested on: SK-OV-3 ovarian
[21] = tested on: SW-620 colon
[22] = tested on: MDA-MB-435
[23] = tested on: SK-MEL-5 melanoma
[24] = tested on: NCI/ADR-RES ovarian
[25] = tested on: HT29 colon
[26] = tested on: SNB-19 CNS
[27] = tested on: OVCAR-8 ovarian
[28] = tested on: MDA-MB-231 breast
[29] = tested on: NCI-H23 lung
[30] = tested on: NCI-H522 lung

Work on `O=c1[nH]c2ccccc2cc1CSc1ccc(Nc2nccc(-c3ccc(Cl)cc3)n2)cc1` yielded a GI50 [1] of 1830 nM, a TGI [1] of 6.28 µM and a GI50 [2] of 4.45 µM. It also gave a TGI [2] of 23.6 µM, a GI50 [3] of 2410 nM and a TGI [3] of 21.5 µM. For the same compound, the GI50 [4] was 3.92 µM, the TGI [4] was 15.2 µM and the GI50 [5] was 2470 nM. For the same compound, the TGI [5] was 11.2 µM, the GI50 [6] was 1810 nM and the TGI [6] was 6.09 µM. The GI50 [7] was 2590 nM, the TGI [7] was 15.9 µM and the GI50 [8] was 1020 nM. For the same compound, the TGI [8] was 15.2 µM, the GI50 [9] was 621 nM and the TGI [9] was 3.45 µM. It also gave a GI50 [10] of 334 nM, a TGI [10] of 1260 nM and a GI50 [11] of 3.78 µM. The TGI [11] was 56.9 µM, the GI50 [12] was 245 nM and the TGI [12] was 1420 nM. For the same compound, the GI50 [13] was 776 nM, the TGI [13] was 2140 nM and the GI50 [14] was 2570 nM. The TGI [14] was 18.3 µM, the GI50 [15] was 43.2 µM and the TGI [15] was > 100 µM. For the same compound, the GI50 [16] was 1420 nM, the TGI [16] was 4.77 µM and the GI50 [17] was 1230 nM. The TGI [17] was 2600 nM, the GI50 [18] was 368 nM and the TGI [18] was 1440 nM. It also gave a GI50 [19] of 4.05 µM, a TGI [19] of 25.3 µM and a GI50 [20] of 2260 nM. For the same compound, the TGI [20] was 5.49 µM, the GI50 [21] was 1540 nM and the TGI [21] was 13.4 µM. It also gave a GI50 [22] of 2750 nM, a TGI [22] of 13.1 µM and a GI50 [23] of 2490 nM. It also gave a TGI [23] of 9.56 µM, a GI50 [24] of 1130 nM and a TGI [24] of 3.32 µM. For the same compound, the GI50 [25] was 917 nM, the TGI [25] was 5.52 µM and the GI50 [26] was 1180 nM. For the same compound, the TGI [26] was 2580 nM, the GI50 [27] was 1600 nM and the TGI [27] was 3.5 µM. For the same compound, the GI50 [28] was 1260 nM, the TGI [28] was 3.04 µM and the GI50 [29] was 1660 nM. The TGI [29] was 4.85 µM and the GI50 [30] was 2170 nM.
